Where a name gives a salt, the structure may show the parent alone. Values belong to the molecule of their own block, whether it stands above or below them.
Tests used:
[1] = target: proton pump (H+/K+-ATPase) (UniProt P19156); test: Inhibition of proton pump (H+/K+-ATPase activity); type: biochemical; design: Effect ratio; conditions: relative to omeprazole IC50
Description: (§1) Test 1: Inhibition of proton pump (H^+/K^+-ATPase activity)
(§2) A proton pump enzyme was prepared by the same method as in the Experiment 1-1 of WO 94/14795. Further, the inhibitory effect of proton pump activity was measured by the same method as in Experiment 1-2 of WO 94/14795.
(§3) Namely, the proton pump activity stimulated by Mg^++ was used as a negative comparative group, and the activity stimulated by Mg^++ and K^+ was used as a positive comparative group. The comparative compound was omeprazole.
(§4) Test tubes were divided into 4 groups: Group 1 as negative comparative group(n=3), Group 2 as positive comparative group(n=3), Group 3(n=5×2) to be administered with the compound of the present invention and Group 4(n=5×2) to be administered with the comparative compound.
(§5) The inhibitory effects of Groups 3 and 4 on proton pump activity were measured by employing the compound prepared in Examples and omeprazole, respectively, each of which was dissolved in dimethylsulfoxide at 5 different concentrations.
(§6) To each of Groups 1, 2, 3 and 4 were added 100 μl of magnesium chloride(40 mM) dissolved in 40 mM Tris-HCI buffer(ph 6.0) and 100 μg of the enzyme source. The 50 μl of potassium chloride(50 mM) and 50 μl of ammonium chloride(6 mM) dissolved in 40 mM Tris-HCl buffer(pH 6.0) were added to all groups except for group 1.
(§7) 10 μl of dimethylsulfoxide was added to each of Groups 1 and 2; and to Group 3 was added 10 μl of dimethylsulfoxide solution prepared by dissolving compound of EXAMPLE at 5 different concentration(n=5×2). To Group 4, 10 μl of the solution prepared by dissolving omeprazole in dimethylsulfoxide at 5 different concentration(37.6, 21.4, 12.2, 7.0 and 4.0 μM) was added(n=5×2). 40 mM Tris-HCI buffer(pH=6.0) was added thereto so as to make the total volume 400 μl.
(§8) Thereafter, the test tube of each Group were placed at 37° C. for 30 minutes for the preincubation. 100 μl ATP solution (6.6 mM) was added until the reaction volume became 500 μl. After the reaction was carried out at 37° C. for 30 minutes, 25% cold trichloroacetic acid was added to terminate the enzyme reaction. The released inorganic phosphate was measured by an automatic analyzer(Express 550, coming).
(§9) The difference between Group 1 and Group 2 represents the proton pump activity activated by K^+ only. The IC50s of Group 3 and 4 were calculated from Litchfield-wilcoxon equation[see, e.g., J. Pharrnacol. Exp. Ther., 96, 99(1949)]. The concentrations of the test compounds inhibiting 50% of the proton pump activity are represented as IC50 in Table 1.

[2] = target: proton pump (H+/K+-ATPase) (UniProt P19156); test: Inhibition of proton pump (H+/K+-ATPase activity); type: biochemical; design: other: K+-stimulated proton pump activity, pH 6.0, 37°; conditions: K+-stimulated proton pump activity, pH 6.0, 37° C., 30 minutes preincubation; read-out: IC50 (concentration inhibiting 50% of the proton pump activity)
Description: as §1, §2, §3, §4, §5, §6, §7, §8, §9

[3] = test system: gastric secretion in pylorus-ligated Sprague-Dawly rats; test: Inhibition of gastric secretion (pylorus-ligated rats, Shay method); type: in vivo; conditions: 20 mg/kg intraduodenally, 5 hours; for Relative conc.: gastric juice acidity relative to omeprazole, equation (II); for Relative volume: gastric juice amount relative to omeprazole, equation (I); for Relative Acid Output: total acid output relative to omeprazole, equation (III)
Description: Test 2: Inhibition of gastric secretion
In accordance with the method disclosed in Shay, H., et al., Gastroenterology 5 43-61(1945), Test 2 was carried out.
Sprague-Dawly rats having a body weight of 170±10 g were divided into 3 groups(n=5) and deprived of food for 24 hours before the experiment with free access to water. Under ether anesthesia, the abdomen was incised, and the pylorus was ligated. As a comparative group, Group 1 was administered intraduodenally in a volume of 0.5 ml/200 g of 30% aqueous polyethylene glycol 400 solution. Groups 2 and 3 were administered intraduodenally with the compound of Example and omeprazole, respectively, each of which was suspended in 30% aqueous polyethylene glycol 400 solution at a concentration of 20 mg/kg. After closing the abdominal cavity, the rats were placed for 5 hours and then killed by cervical dislocation. The stomach was extracted to obtain gastric juice.
Tne gastric juice was centrifuged at 1,000 g to remove precipitates. The amount and acidity of the gastric juice were measured. Relative volumes, relative acid concentrations and relative acid outputs of the test compounds were calculated from equations(I), (II) and (III) and the results are shown in Table 2.
Relative volume=(the average amount of gastric juice of Group 1—the average amount of gastric juice of Group 2)/(the average amount of gastric juice of Group 1−the average amount of gastric juice of Group 3)—(I)
Relative acid concerntration=(the average acidity of Group 1—the average acidity of Group 2)/(the average acidity of Group 1—the average acidity of Group 3)—(II)
Relative acid output (the total amount of acid output of Group 1—the total amount of acid output of Group 2)/(the total amount of acid output of Group 1—the total amount of acid output of Group 3)—(m)

SMILES: COCc1nc(Nc2ccc(F)cc2)nc(N2CCc3ccccc3C2)c1C.Cl [Example 26, 6-methoxymethyl-5-methyl-2-(4-fluorophenylamino)-4-(1,2,3,4-tetrahydroisoquinolin-2-yl)pyrimidine hydrochloride]
- Effect ratio [1]: 4.3
- IC50 [2]: 2600 nM
- Relative conc. [3]: 0.64
- Relative volume [3]: 0.67
- Relative Acid Output [3]: 0.74

SMILES: CCCNc1nc(COC)c(C)c(N2CCc3ccccc3C2)n1.Cl [Example 25, 6-methoxymethyl-5-methyl-2-(2-methylethylamino)-4-(1,2,3,4-tetrahydroisoquinolin-2-yl)pyrimidine hydrochloride]
- Effect ratio [1]: 6.0
- IC50 [2]: 1850 nM
- Relative conc. [3]: 0.52
- Relative volume [3]: 1.00
- Relative Acid Output [3]: 0.86

SMILES: Cc1csc(Nc2nc(C)c(C)c(N3CCc4ccccc4C3C)n2)n1.Cl (centres unmarked) [Example 22, 5,6-dimethyl-2-(4-methylthiazol-2-yl)amino-4-(1-methyl-1,2,3,4-tetrahydroisoquinolin-2-yl)pyrimidine hydrochloride]
- Effect ratio [1]: 1.7
- IC50 [2]: 6690 nM
- Relative conc. [3]: 0.46
- Relative volume [3]: 0.59
- Relative Acid Output [3]: 0.62

SMILES: COCCNc1nc(C)c(C)c(N2CCc3ccccc3C2)n1.Cl [Example 5, 5,6-dimethyl-2-(2-methoxyethylamino)-4-(1,2,3,4-tetrahydroisoquinolin-2-yl)pyrimidine hydrochloride]
- Effect ratio [1]: 1.6
- IC50 [2]: 6910 nM
- Relative conc. [3]: 0.18
- Relative volume [3]: 0.45
- Relative Acid Output [3]: 0.43

SMILES: C=CCNc1nc(C)c(C)c(N2CCc3ccccc3C2)n1 [Example 2, 5,6-dimethyl-2-(3-allylamino)-4-(1,2,3,4-tetrahydroisoquinolin-2-yl)pyrimidine hydrochloride]
- Effect ratio [1]: 1.4
- IC50 [2]: 7850 nM
- Relative conc. [3]: 0.57
- Relative volume [3]: 0.69
- Relative Acid Output [3]: 0.70

Continued, in another order:

- Effect ratio [1]: 7.2
- IC50 [2]: 1550 nM
SMILES: COCc1nc(Nc2ccc(F)cc2C)nc(N2CCc3ccccc3C2)c1C.Cl [Example 27, 6-methoxymethyl-5-methyl-2-(4-fluoro-2-methylphenylamino)-4-(1,2,3,4-tetrahydroisoquinolin-2-yl)pyrimidine hydrochloride]
- Relative conc. [3]: 0.68
- Relative volume [3]: 0.99
- Relative Acid Output [3]: 0.90

- Effect ratio [1]: 25.8
- IC50 [2]: 430 nM
SMILES: Cc1ccccc1Nc1nc(CO)c(C)c(N2CCc3ccccc3C2C)n1.Cl (centres unmarked) [Example 34, 6-hydroxymethyl-5-methyl-2-(2-methylphenylamino)-4-(1-methyl-1,2,3,4-tetrahydroisoquinolin-2-yl)pyrimidine hydrochloride]
- Relative conc. [3]: 0.45
- Relative volume [3]: 0.81
- Relative Acid Output [3]: 0.78

- Effect ratio [1]: 8.3
- IC50 [2]: 1340 nM
SMILES: Cc1c(CO)nc(Nc2ccccc2)nc1N1CCc2ccccc2C1C.Cl (centres unmarked) [Example 32, 6-hydroxymethyl-5-methyl-2-phenylamino-4-(1-methyl-1,2,3,4-tetrahydroisoquinolin-2-yl)pyrimidine hydrochloride]
- Relative conc. [3]: 0.47
- Relative volume [3]: 0.84
- Relative Acid Output [3]: 0.77

- Effect ratio [1]: 4.3
- IC50 [2]: 2560 nM
SMILES: COCc1nc(Nc2ccccc2)nc(N2CCc3ccccc3C2C)c1C.Cl (centres unmarked) [Example 31, 6-methoxymethyl-5-methyl-2-phenylamino-4-(1-methyl-1,2,3,4-tetrahydroisoquinolin-2-yl)pyrimidine hydrochloride]
- Relative conc. [3]: 0.97
- Relative volume [3]: 1.06
- Relative Acid Output [3]: 1.01

- Effect ratio [1]: 4.4
- IC50 [2]: 2550 nM
SMILES: COCc1nc(Nc2ccc(F)cc2C)nc(N2CCc3ccccc3C2C)c1C.Cl (centres unmarked) [Example 29, 6-methoxymethyl-5-methyl-2-(2-methyl-4-fluorophenylamino)-4-(1-methyl-1,2,3,4-tetrahydroisoquinolin-2-yl)pyrimidine hydrochloride]
- Relative conc. [3]: 0.81
- Relative volume [3]: 0.78
- Relative Acid Output [3]: 0.88

— US6352993B1, “Pyrimidine derivatives and processes for the preparation thereof” (Yuhan Corporation, priority 1997, dated 2002)
